Reference: US20190284640A1, “Methods and Systems for Predicting Response to Immunotherapies for Treatment of Cancer” (Vanderbilt University, priority 2018, published 2019)
“Also recorded” adds a separate entry of the source.

What was measured:
[1] = test system: p53 altered MMTV-Neu cells; assay: Chemokine induction by doxorubicin in MMTV-Neu cells; assay type: cell-based, mouse
Excerpt: Doxorubicin induces T cell recruiting chemokines in p53 altered MMTV-Neu cells. FIG. 49.

[2] = test system: TP53 mutant mouse breast cancer cells lines; assay: Cytokine expression after doxorubicin in mouse breast cancer cell lines; assay type: cell-based
[3] = test system: melanoma cell lines; assay: Western blot of melanoma cell lines after IFNγ stimulation; assay type: cell-based, human
Description: (§1) FIGS. 3A-F show characterization of MHC-II(+) melanoma cell lines. Melanoma cell lines were treated with IFNy for 24 h before collection and live-cell staining and flow cytometry analysis for (A) MHC-I (HLA-A/B/C), (B) MHC-II (HLA-DR), and (C) PD-L1. Bars represent mean ±S.E.M. for at least three experiments (D) Representative flow plots from (C). (E) Western blot analysis of melanoma cell lines after 24 or 48 h of IFNy stimulation. (F) Phosphorylation of STAT1 (top row) and STATS (bottom row) in melanoma cell lines at 15 min after IFNy stimulation. Histograms were colored according to the arcsinh transformed ratio or MFI medians relative to the table minimum value.
Immunoblotting was performed as previously described^32 Briefly, cells were washed in cold phosphate-buffered saline, collected and lysed in 1×RIPA buffer (50 mM Tris (pH 7.4), 1% NP-40, 150 mM NaCl, 1 mM EDTA, 0.1% SDS, 0.25% sodium deoxycholate, 5 mM NaF, 5 mM Na3VO4, 10% glycerol, […] phenylmethyl-sulphonylfluoride and protease inhibitors) for 30 min on ice. Lysates were sonicated for 2-3 s to shear DNA and cleared by centrifugation at 13,200 r.p.m. for 15 min. Protein concentrations of the lysates were determined by BCA assay (Bio-Rad, Hercules, Calif.). Samples were separated by SDS-PAGE and transferred to nitrocellulose membrane. […]

[4] = test system: melanoma cell lines; assay: Flow cytometry of melanoma cell lines under basal and IFNγ-stimulated conditions; assay type: cell-based, human
Description: as §1
FIGS. 4A-D show graphs illustrating mean expression levels of MHC-I, MHC-II, and PD-L1 at baseline and after IFNy stimulation. Melanoma cell lines were treated with 100 ng IFNy for 24 hr (shown as percentage positive in FIGS. 2A-C) prior to harvest and live-cell staining and flow cytometry analysis for (A) MHC-FHLA-A/B/C, (B) MHC-II/HLA-DR, and (C) PD-L1. Bars represent mean fluorescence intensity ±SEM for 3 experiments. (D) Histograms of HLA-DR surface expression over an extended (24-72 hr) IFNy treatment, as assessed by flow cytometry.
Cell surface expression mirrored mRNA expression patterns; MHC-I (HLA-A/B/C) was expressed ubiquitously among all cell lines under both basal and stimulated conditions, while MHC-II (HLA-DR) was present only on the intermediate/Ib (SKMEL5 and SKMEL28) and high/Ia cell lines (WM115 and A375; FIGS. 3A-C and 4A-D). […] The high (Ia) WM115 cell line was essentially 100% positive for HLA-DR at both basal and stimulated conditions.
Standard Flow Cytometry. Flow cytometry was performed using the following antibodies: HLA-DR/PE-Cy7 (Biolegend, clone L243. 1:20). CD274/PD-L1/APC (Biolegend, clone 29E.2A3, 1:200) and HLA-A/B/C-Alexa Fluor488 (1:100, Biolegend, clone W6/32) mouse MHC-II (I-A/I-E 1:20 Biolegend, clone M5/114.15.2). DAPI was used as a viability dye. Samples were analyzed on an Aria III laser system (BD Biosciences)
Cell and tumor culture. […]

[5] = test system: melanoma cell lines; assay: Phospho-flow cytometry of melanoma cell lines after IFNγ stimulation; assay type: cell-based, human; conditions: 15 min IFNγ; MHC-II(−) cell lines
Description: as §1
Phospho-flow cytometry. Melanoma cell lines were treated with Accutase™ (EMD Millipore, # SCR005) for 10 minutes at 37° C. to dissociate them from the plate. Dissociated cell lines were rested at 37° C. in a CO2 incubator for 30 minutes prior to stimulation. After resting, cells were stimulated by adding IFNy (Cell Signaling) at a final concentration of 100 ng/mL. During signaling, cells were kept in a 37° C. CO2 incubator. After 15 minutes of signaling, cells were fixed for 10 minutes at room temperature with a final concentration of 1.6% paraformaldehyde (Electron Microscopy Services). […] Samples were analyzed on a LSRII system (BD Biosciences).

[6] = test system: melanoma PDX tissue slices; assay: Ex vivo organotypic culture of PDX tumor slices with or without IFNγ; assay type: cell-based, human; conditions: PT1 and PT2 PDX tissue slices, 24-48 h
Excerpt: FIGS. 6A-D show Ex vivo culture of tumors derived from anti-PD-1-responding and non-responding patients identifies heterogeneity in interferon response. (A) Patient tumor blocks stained for HLA-DR (brown) and SOX10 (pink) at low (scale bar, 500 um) and high magnification (scale bar, […]); PT1: anti-PD-1 non-responder and PT2: anti-PD-1 responder. (B) Experimental schema. (C) Schema and images of PDX tissue sections (ex vivo organotypic culture). (D) Western blot analysis of tissue sections cultured in the presence or absence of IFNy for 24-48 h.
To test this hypothesis, patient-derived xenograft (PDX) models were utilized from the tumor resections of two melanoma patients who subsequently received anti-PD1 therapy; patient 1 (PT1; non-responder, 0% HLA-DR-positive, class II/III) and patient 2 (PT2; partial responder, heterogeneous 15% HLA-DR-positive, class Ib) (FIG. 6A). […] The resected tumors from PT1 and PT2 were serially transplanted to athymic nu/nu mice, which are highly deficient in functional T cells, ruling out a possible source of IFNγ (FIG. 6B). […] Thus, HLA-DR may be a marker of IFNγ activity in the microenvironment of some (but not all) tumors.
Cell and tumor culture. SKMEL-28 and WM115 cell lines were obtained from Dr. Kimberly Dahlman (Vanderbilt University), CHL-1 and HMCB melanoma cell lines were obtained from the laboratory of William Pao (Vanderbilt University). […]

Compound	T cell recruiting chemokines [1]	cytokine expression [2]	CIITA expression ([3]; 24 or 48 h IFNγ)	STAT1 activation ([3]; all cell lines)	HLA-DR expression ([4]; CHL-1 or HMCB, 72 hrs of IFNγ treatment)	HLA-DR expression ([4]; SKMEL28 (intermediate/Ib))	PD-L1 expression ([4]; all cell lines tested)	STATS activation [5]	HLA-DR upregulation [6]
COc1cccc2c1C(=O)c1c(O)c3c(c(O)c1C2=O)C[C@@](O)(C(=O)CO)C[C@@H]3O[C@H]1C[C@H](N)[C@H](O)[C@H](C)O1 [Doxorubicin]	induces	induce cytokine expression							
IFNγ: recombinant human IFNγ (R&D Systems), stimulation at 100 ng/mL			only induced in HLA-DR+ Ia/Ib cells	robustly activated	No significant increase	potently induced	potently induced; also recorded: significantly upregulated	preferentially activated	only the PT2 PDX model (anti-PD-1 responder) upregulated HLA-DR
